# Test results reported in US20240245703A1, “TOPICAL APPLICATION OF AGENTS TO REDUCE SUN SENSITIVITY AND IMPROVE TOPICAL PHOTODYNAMIC THERAPY” (Wright State University, priority 2021, published 2024).
# Tests used:
# human skin explants = experiment: PDT-induced MVP release in human skin explants ex vivo; format: cell-based; details: 100 μL of 5 mM added post-PDT, 4 h
# Method: (§1) For the data shown in FIG. 14, HaCaT keratinocytes were treated with sham (no treatment), 0.1% ethanol vehicle control (VEH), 100 nM TPA, 100 nM CPAF, 1 mM 5-ALA for 4 hours, or 5-ALA followed by various fluences (2.5-20 J/cm^2) of blue light or blue light alone. Levels of MVPs released into supernatants were measured at 4 hours. […] For the data shown in FIG. 15, human skin explants were treated with sham, 100 μL vehicle (90% ethanol+10% DMSO) (VEH), 1 μM TPA, 1 µM CPAF, 1 mM 5-ALA for 4 hours, blue light or 5-ALA+blue light at 20 J/cm^2. After four hours, duplicate 6-mm punch biopsies were obtained, weighed, and MVPs were measured. The data are the mean±SE from 3-4 separate experiments conducted in duplicate. * Denotes statistically significant (P <0.05) changes from sham values.
# (§2) Supernatants were collected at 4 hours and MVP measured. The data are the mean±SE MVP fold change from sham-treated values. For the data shown in FIG. 17, human skin explants were treated as in FIG. 15, with the exception that in some experiments 100 μL of 5 mM IMIP was added post-PDT. MVP were measured in duplicate 6-mm punch biopsies obtained 4 hours post-treatment.
# UVB-induced erythema [1] = experiment: UVB-induced skin erythema (Mexameter) in wild-type and XPA KO mice; format: in vivo; details: WT and XPA KO mice, 5 kJ/m^2 UVB, 100 μL 500 μM topical immediately after, 4 h; effect most noted in XPA KO
# Method: Erythema was measured by a Mexameter® device (Courage+Khazaka electronic GmbH, Cologne, Germany) before treatment and after 4 hours of treatment. […] UVB-induced skin inflammation involves many cytokines including interleukin-6 (IL-6) and tumor necrosis factor-alpha (TNFα).
# Groups of 6-8 mice underwent erythema measurements with a Mexameter® device before irradiation with various fluences (1.0, 2.5, and 5.0 kJ/m^2) of UVB or no UVB (sham), and four hours later erythema was measured to determine the cutaneous erythema and cytokine responses of UVB irradiation on wild-type vs XPA KO mice. Similarly, triplicate skin biopsies were obtained and mRNA isolated, and quantitative reverse transcription polymerase chain reaction (qRT-PCR) used to quantify mRNA levels of cytokines TNF ? and IL-6. The housekeeping gene GAPDH was used as control. […] The data is shown as the mean±S.E. of fold change in baseline erythema levels. * Denotes statistically significant (P<0.05) differences between UVB- and sham-treated mice. #Denotes statistically significant (P<0.05) differences between XPA KO and wild-type erythema responses.
# The data is shown as the mean±S.E. of fold change in baseline erythema levels. * Denotes statistically significant (P<0.05) differences between UVB- and sham-treated mice
# UVB-induced erythema [2] = experiment: erythema and temperature response to low-fluence UVB on temple skin of subjects with rosacea; format: in vivo, human
# Method: 30 minutes later, a 1 cm area of previously treated skin was irradiated with a low 300 J/m^2 UVB. Erythema was measured before UVB and at various times post-UVB irradiation in blinded fashion with a mexameter and temperature using a thermal imaging camera. […] Values represent the change in erythema from baseline for each subject at 24 hours post-UVB. […] The boxes represent the area treated with UVB. Insets into the photographs are thermal camera images of the UVB-treated skin, with white areas on the thermal imaging camera denoting increased temperature.
# TNFα and IL-6 mRNA = experiment: UVB-induced cytokine mRNA (qRT-PCR) in mouse skin biopsies; format: in vivo; details: mice, topical post-UVB, skin biopsies 4 h
# PDT-induced MVP release = PDT-induced MVP release in skin and plasma of mice; format: in vivo; details: wild-type mice, PDT 20 J/cm^2 blue light, 100 μl of 5 mM topical immediately after, 4 h
# Method: Next, the role of PAF and aSMase in PDT-induced MVP release was assessed. […] Next, the ability of topical PDT to generate MVP in vivo in mice, and the role of aSMase in this process, was determined. […] Two approaches were used to determine if PDT-induced MVP involved aSMase.
# The role of aSMase in PDT-mediated MVP release was evaluated in a murine system. For the data shown in FIG. 18, wild-type mice were treated with either sham, 100 μl of 5 mM IMIP, or 90% polyethylene glycol: 10% DMSO vehicle, or 1 μM TPA (as a positive control for MVP release), or PDT using 20 J/cm^2 blue light. Immediately following PDT, the treated areas were given vehicle or imipramine. At 4 hours post-treatment, the mice were euthanized and MVP were measured from duplicate 6-mm punch biopsies and plasma. The data are mean±SD fold increase in MVP normalized to tissue weight/plasma volume. * Denotes statistically significant (P<0.05) changes from sham; #statistically significant (P<0.05) changes from comparator denoted by line by two-way ANOVA; NS not statistically significant.
# To confirm the role of aSMase in PDT-induced MVP generation, PDT effects were evaluated in the absence of aSMase was evaluated in a murine system. For the data shown in FIG. 19, wild-type or aSMase-deficient (Smpd1−/−) mice underwent sham or PDT using 20 J/cm^2 blue light. At 4 hours post-treatment, the mice were euthanized and MVP were measured from duplicate 6-mm punch biopsies and plasma. The data are mean±SD fold increase in MVP normalized to tissue weight/plasma volume. * Denotes statistically significant (P<0.05) changes from sham; NS not statistically significant.
# HaCaT keratinocytes = experiment: PDT (5-ALA + blue light) MVP release in HaCaT keratinocytes; format: cell-based, human; design: PDT-induced MVP release: dose or concentration left out as unconfirmed; details: HaCaT keratinocytes, imipramine added immediately after PDT, supernatants 4 h
# Method: PDT results in acute cellular destruction and inflammation and photosensitivity, as well as delayed immunosuppression. […] Thus, it was of further interest whether experimental PDT of HaCaT keratinocytes generated MVP in vitro. To that end, HaCaT cells were pretreated with 5-ALA alone, or blue light alone, or a 4 hour incubation of 5-ALA in the dark followed by various fluences of blue light, and MVP were measured in the supernatants at 4 hours post blue light. 100 nM CPAF and TPA were used as positive controls for MVP release.
# as §1, §2
# aSMase = details: cited from earlier work
structure (smiles),measurement,setting,value
CN(C)CCCN1c2ccccc2CCc2ccccc21 [Imipramine],PDT-induced MVP release,human skin explants,blocked PDT-induced MVP release
same,UVB-induced erythema response,UVB-induced erythema [1],blocked the erythema responses
same,skin temperature (thermal imaging) after UVB,"UVB-induced erythema [2]; one representative rosacea subject, 4% imipramine + UVB versus vehicle + UVB",less temperature signature
same,erythema response to UVB,"UVB-induced erythema [2]; subjects with rosacea, 0.1 ml 4% imipramine 30 minutes before 300 J/m^2 UVB, 24 hours post-UVB",blocks the erythema response
same,UVB-induced IL-6 mRNA,TNFα and IL-6 mRNA,blocks IL-6 mRNA responses
same,UVB-induced TNFα mRNA,TNFα and IL-6 mRNA,blocks TNFα mRNA responses
same,PDT-induced MVP release in skin and plasma,PDT-induced MVP release,blocked MVP release
same,PDT-induced MVP release,HaCaT keratinocytes,blocked PDT-induced MVP release
same,Residual ASM Activity,"aSMase; 10 micromolar, PC12 cells, incubation time 0.5 h, % of corresponding control values",32.6%
same,residual aSMase activity after treatment,aSMase; from Kornhuber et al. 2008,30.6%
